The results in this text go back to article PMC10522709, “Rational design and characterization of cell-selective antimicrobial peptides based on a bioactive peptide from Crocodylus siamensis hemoglobin” (Scientific Reports, 2023).

Ends that are not written are not given here. Bounds are passed on as bounds.

One series concerns E. coli (ATCC25922). The experiment in a line: Time-killing kinetics assay. The series is classed as cell-based, Escherichia coli. As to the method: The time-killing kinetics of peptide was determined as described previously by Yaraksa et al.[16] In short, E. coli (ATCC25922) and S. epidermidis (ATCC12228) cells grown overnight were diluted in the Nutrient broth to a concentration of 1 × 10^6 CFU/mL. The diluted bacterial suspension (50 µL) was incubated with the peptide solution (50 µL, final concentration = 1 × MIC or 2 × MIC) at 37 °C. 10 µL of the mixture was taken at regular time intervals (0, 15, 30, 60, 180, 360, 540 and 720 min for 1 × MIC and 0, 30, 60, 180, 360, 720, 1440, 2160 and 2880 min for 2 × MIC), diluted and cultured on nutrient agar plates for 24 h. Bacterial cells were then counted and a graph of the log CFU/mL against incubation time was plotted to evaluate the rate at which peptides kill bacterial cells.

The test system of series [1] is Bacillus subtilis (ATCC 6633). It counts as cell-based. To be noted: ATCC 6633, 18 h. As to the method: (§1) Broth microdilution assays were performed as reported previously. In short, the bacteria including Escherichia coli (ATCC 25922), Klebsiella pneumoniae (ATCC 27736), Pseudomonas aeruginosa (ATCC 27853), Bacillus subtilis (ATCC 6633), Staphylococcus aureus (ATCC 25923) and Staphylococcus epidermidis (ATCC 12228) were grown in Nutrient broth to mid-log phase at 37 °C. The bacterial suspension (50 μL, concentration of 1 × 10^6 CFU/mL) was loaded into a well with serially diluted peptide (50 µL, final concentrations ranging from 0–200 μg/mL) in a sterile 96-well plate and incubated at 37 °C for 18 h. The optical density (OD) at 600 nm was measured using a microplate reader (ALLSHENG, Zhejiang, China) in order to determine the growth of the bacteria. The inhibition was estimated using the formula; %inhibition=OD600ofcontrol-OD600ofsample/OD600ofcontrol-OD600ofblank×100 where minimal inhibitory concentration (MIC) is defined as the minimum concentration that inhibited 90% of bacterial growth.

Series [2] has as its system Escherichia coli (ATCC 25922). The series is classed as cell-based. The note with it: ATCC 25922, 18 h. Here is the method:
as §1

For series [3], the system named is Pseudomonas aeruginosa (ATCC 27853). The series is classed as cell-based. The note with it: ATCC 27853, 18 h. Here is the method: as §1
Series [4] concerns Klebsiella pneumoniae (ATCC 27736). The series is classed as cell-based. To be noted: ATCC 27736, 18 h. Here is the method:
as §1

Series [5] deals with Staphylococcus epidermidis (ATCC 12228). The series is classed as cell-based. The note with it: ATCC 12228, 18 h. As to the method:
as §1

Series [6] concerns Staphylococcus aureus (ATCC 25923). It counts as cell-based. The note with it: ATCC 25923, 18 h. Here is the method: as §1
The next series concerns human erythrocytes. It counts as cell-based. To be noted: red cells of human, 1 h. Here is the method:
Human whole blood was obtained from Blood Transfusion Center Faculty of Medicine Khon Kaen University (ethical approval number HE601010). Fresh human erythrocytes were carefully mixed with PBS (1:3) and centrifuged at 1000 × g for 2 min. The supernatant was discarded and the cell pellet was resuspended to 2% w/v in PBS. 100 µL of the resuspended erythrocytes were incubated with the peptide (10 µL, final concentrations ranging from 12.5 to 100 μg/mL, two-fold serial dilution) at 37 °C for 1 h. After the treatment, the plate was centrifuged and the supernatant was taken to determine the optical density at 415 nm using a microplate reader (ALLSHENG, Zhejiang, China). The positive control for this assay was the addition of Triton X-100 (1% v/v), which causes 100% hemolysis. The negative control was cells treated with PBS buffer only. The hemolysis activity was estimated using the equation: %hemolysis=OD415ofsample/OD415ofTritonX-100treatedcontrol×100

The test system of series [7] is EcoRI-digested Lambda (λ) DNA. The experiment in a line: Gel retardation assay. The note with it: 200 ng λ DNA, peptide 4, 6, 8, 16 µg/mL, 60 min, room temperature, 0.8% agarose gel. The series is classed as binding. As to the method:
DNA used for this test was Lambda (λ) DNA, which had been digested with EcoRI into fragments sized 21,226, 7421, 5804, 5643, 4878 and 3530 bp (Thermo Fisher Scientific, Waltham, MA, USA). The gel retardation assay was run by mixing 200 ng of λ DNA with different concentrations of IL15.3 at 1 × MIC (4 µg/mL), 2 × MIC (8 µg/mL), 4 × MIC (16 µg/mL) and MBC (6 µg/mL) of E. coli. The mixtures were incubated for 60 min at room temperature and subjected to electrophoresis on a 0.8% agarose gel. Gel was then stained with ViSafe Red gel stain (Vivantis, Selangor Darul Ehsan, Malaysia). Subsequently, DNA bands were photographed using G-box gel documentation (Syngene, USA).

Series [8] relates to Bacillus subtilis (ATCC 6633). It counts as cell-based. The note with it: ATCC 6633, 24 h. As to the method: as §1
(§2) In order to evaluate the minimal bactericidal concentration (MBC)—the lowest concentration that terminates the growth of bacteria on an agar plate—of the peptide, co-culture medium (100 μL) from each well after the microdilution assay was spread on a nutrient agar plate. Plates were maintained at 37 °C for 24 h and the number of colonies formed was counted to evaluate antimicrobial activity.

The test system of series [9] is Escherichia coli (ATCC 25922). It counts as cell-based. The note with it: ATCC 25922, 24 h. Here is the method:
as §1, §2

The subject of series [10] is Pseudomonas aeruginosa (ATCC 27853). The series is classed as cell-based. To be noted: ATCC 27853, 24 h. As to the method: as §1, §2
The test system of series [11] is Klebsiella pneumoniae (ATCC 27736). The series is classed as cell-based. To be noted: ATCC 27736, 24 h. As to the method:
as §1, §2

For series [12], the system named is Staphylococcus epidermidis (ATCC 12228). The series is classed as cell-based. The note with it: ATCC 12228, 24 h. Here is the method: as §1, §2
Series [13] concerns Staphylococcus aureus (ATCC 25923). It counts as cell-based. To be noted: ATCC 25923, 24 h. As to the method:
as §1, §2

With IKHWKKVWKHAKKVL [IL15.3], the “time to inhibit the growth kinetic rate” value with E. coli (ATCC25922) (1 × MIC, 37 °C, 1 × 10^6 CFU/mL, colony count) was no more than 60 min. Further, the “time to completely stop growth” value in the series with E. coli (ATCC25922) (1 × MIC, 37 °C, colony count) turned out to be 180 min. The “time to begin to inhibit growth kinetic rate” value with E. coli (ATCC25922) (2 × MIC, 37 °C, colony count) is reported as no more than 30 min. The “time to fully kill the cells” value with E. coli (ATCC25922) (2 × MIC, 37 °C, colony count) is no more than 180 min. Also, the regrowth of cells result with E. coli (ATCC25922) (2 × MIC, after 48 h) is “did not allow the cells to regrow”. Also, the MIC in series [1] was found to be 8 µg/mL; in series [2], 4 µg/mL; in [3] it was 10 µg/mL; in series [4] it was 10 µg/mL; in series [5], 9 µg/mL; in series [6], 12 µg/mL. Moreover, the “Hemolysis concentration50 (HC50)” value with human erythrocytes is greater than 2000 µg/mL. Besides, the “interaction with DNA (gel retardation)” value in series [7] was “binds to λ DNA fragments”. The MBC in series [8] came out at 12 µg/mL; in series [9], 6 µg/mL; in series [10], 18 µg/mL; in [11] it was 25 µg/mL; in series [12], 12 µg/mL; in series [13], 25 µg/mL.
